Measured values taken from US20080234280A1, “Use of Mc4 Receptor Agonist Compounds” (priority 2005, published 2008).

Test system: Female beagle dogs
Test: dog urethral pressure profilometry (Test A)
Assay type: in vivo
Details: anaesthetised female beagle dog; for Mean peak urethral pressure (PUP): i.v. infusion over 15 minutes in saline; for PUP increase vs. baseline: i.v. infusion over 15 minutes, baseline (vehicle) PUP 30 mmHg
Protocol: Female beagle dogs (10-15 kg) are anaesthetised with sodium pentobarbitone (60 mg/mL solution) administered intravenously (IV) at 0.5 ml/kg via the right cephalic vein. Immediately following induction of anaesthesia the dog is intubated and respiration supported by artificial ventilation with oxygen. End tidal CO2 is monitored continuously, using a Datex CO2/O2 monitor and maintained between 4.5 and 4.8% and body temperature maintained between 37° C. and 38° C. An incision is made in the right medial thigh and a polyethylene catheter (6F) inserted into the right femoral vein for administration of compounds and fluid maintenance; immediately venous access is achieved a bolus IV dose of α-chloralose (1% w/v) is administered at 35 mg/kg. A polyethylene catheter (4F) is inserted into the right femoral artery for blood sampling. An incision is made in the right foreleg and the brachial vein and artery isolated, maintenance of anaesthesia is achieved with α-chloralose/borax administered IV at the rate of 10 mg/kg/h via a polyethylene catheter (6F) inserted into the right brachial vein. A laparotomy is performed from the umbilicus to the top of the pubic symphysis via the midline to expose the peritoneum in order to expose the bladder. Both ureters are cannulated towards the kidneys with polyethylene catheters (6F) and urine collected externally; the bladder is catheterised through the dome with a polyethylene catheter (6F), which is in turn connected to a pressure transducer. In order to maintain constant bladder pressure at 10-15 mmHg, urine is removed and ambient temperature saline infused into the bladder. Immediately following the completion of the surgical procedures a further bolus dose of α-chloralose/borax solution is administered IV at 35 mg/kg and the animal allowed to stabilise for a period period ca. 1 hr, during which time haemodynamic and urological parameters were monitored.
Urethral tone (peak urethral pressure (PUP), functional urethral length (FUL) and closing pressure (CP)) is assessed with the aid of an 8F Millar pressure transducer (Millar Instruments, Texas, US) inserted into the bladder through the external meatus. The urethral Millar pressure transducer is then retracted along the length of the urethra (urethral pull through) at a rate of 1 cm/min enabling the determination of PUP, FUL and CP. Urethral pull throughs are repeated every 6 min until at least 4 reproducible urethral profiles are observed. Subsequently increasing concentrations of test compound or vehicle is injected intravenously utilising either a bolus dose or constant infusion and at least a further 4 urethral pull throughs carried out at each concentration investigated. Changes in the PUP, FUL or CP are indicative of compound activity on lower urinary tract function. • Investigation of bladder capacity and external urethral sphincter (EUS) function in the spontaneously hypertensive rat:
was tested in the dog urethral pressure model (Test A) described above. The compound was dissolved in saline (vehicle) and administered by i.v. infusion over a period of 15 minutes, with at least 5 urethral pressure measurements being taken at each dose level during infusion and for 15 minutes post-infusion.

## CO[C@H]1CN(C(=O)[C@@H]2CN(c3cccnn3)C[C@H]2c2ccc(F)cc2F)CC[C@]1(OC)c1ccccc1 [Example 8]
Dose 1.0 mg/kg
  Mean peak urethral pressure (PUP): 32 mmHg
  PUP increase vs. baseline: 7%
Dose 2.0 mg/kg
  Mean peak urethral pressure (PUP): 36 mmHg
  PUP increase vs. baseline: 20%
Dose 3.0 mg/kg
  Mean peak urethral pressure (PUP): 35 mmHg
  PUP increase vs. baseline: 17%
